Laboratory results as given in paper PMC7810238, “Design, synthesis, and evaluation of Bothrops venom serine protease peptidic inhibitors” (The Journal of Venomous Animals and Toxins Including …, 2021).
Where no end group is shown, it is not given here. [ ]: non-standard residue; d: D form.

Columns and labels:
[1] = test system: batroxobin; assay: batroxobin thrombin-like activity, chromogenic substrate S-2238; format: biochemical, B. moojeni; conditions: for inhibition of batroxobin activity: peptide 60 µg/mL, absorbance 405 nm
Protocol: (§1) Batroxobin and human thrombin activities were evaluated using the chromogenic substrate S-2238 (Chromogenix). Briefly, batroxobin (0.8 U) or human thrombin (0.8U) was pre-incubated at 37°C for 10 minutes with different concentrations (0 to 1 mg/mL for batroxobin, and 60 µg/mL, for human thrombin), of each peptide in Tris/HCl buffer […], containing CaCl2 0.02% (v/v), pH 8.0. Enzymatic reaction was initiated by addition of substrate (200µM), followed by incubation at 37°C, for 20 minutes. When serine protease activity from BjV was evaluated using the chromogenic substrate S2238, 5 µg of BjV and 60 µg/mL of each peptide were employed.
(§2) For all assays using chromogenic substrates, hydrolysis was quantified by evaluation of absorbance at 405 nm, in a spectrophotometer SpectraMax® Paradigm® Multi-Mode reader from Molecular Devices (Sunnyvale, CA).
(§3) SVSPs activity from BjV was also evaluated using the fluorogenic substrate Abz-Ser. Briefly, BjV (5 µg/100µL) was pre-incubated at 37 °C for 10 minutes with 100 µg/mL of each peptide, in PBS pH 7.4 containing 20mM NaCl. Enzymatic reaction was initiated by addition of substrate (10 µM), followed by incubation at 37°C, for 20 minutes. The substrate hydrolysis was monitored following fluorescence emitted at 420 nm, under excitation at 320 nm in a spectrofluorimeter (Victor 3^TM Perkin- Elmer, Boston, MA, USA), as described by Araujo et al. (2000). All the experiments were made in triplicate.
(§4) Figure 2. Evaluation of the effects of synthetic peptides on batroxobin and on human serine proteases activities. (A) Batroxobin activity was evaluated after 20 min, at 37 °C, using the chromogenic substrate S-2238 and the indicated concentrations of synthetic peptides. (B, C, D) Commercial hSPs had their activity evaluated after 20 min, at 37 °C, using their specific chromogenic substrates and batroxobin inhibitory peptides at 60 µg/mL.

[2] = test system: human thrombin; assay: human thrombin activity, chromogenic substrate S-2238; format: biochemical; conditions: peptide 60 µg/mL; human thrombin 0.8U; pre-incubated 10 min 37°C, Tris/HCl 0.15mM, CaCl2 0.02%, pH 8.0; S-2238 200 µM, 20 min 37°C; 405 nm; triplicate
Protocol: as §1, §2
as §3, with “All the experiments were made in triplicate.” left out

[3] = test system: human factor Xa; assay: proteolytic activity of human factor Xa, chromogenic substrate CS-11(22); format: biochemical; conditions: peptide 60 µg/mL; factor Xa 20nM; pre-incubated 10 min 37°C, Tris/HCl 20 mM, NaCl 150 mM, pH 7.4; CS-11(22) 100µM, 20 min 37°C; 405 nm; triplicate
Protocol: Proteolytic activity of human factor Xa was evaluated using the chromogenic substrate CS-11(22) (Hyphen). Briefly, factor Xa (20nM) was pre-incubated for 10 minutes at 37°C with 60 µg/mL of each peptide in Tris/HCl buffer 20 mM, pH 7.4 containing NaCl 150 mM. Enzymatic reaction was initiated by the addition of substrate (100µM), followed by incubation at 37°C, for 20 minutes.
as §2
as §3, with “Enzymatic reaction was initiated by addition of substrate (10 µM), followed by incubation at 37°C, for 20 minutes.” left out, “All the experiments were made in triplicate.” left out
as §4, with “Evaluation of the effects of synthetic peptides on batroxobin and on human serine proteases activities.” left out

[4] = test system: human trypsin; assay: proteolytic activity of human trypsin, chromogenic substrate BAPNA; format: biochemical; conditions: peptide 60 µg/mL; trypsin 126 nM; pre-incubated 10 min 37°C, Tris/HCl 50 mM, CaCl2 0.02%, pH 8.0; BAPNA 1.25 mM, 20 min 37°C; 405 nm; triplicate
Protocol: Proteolytic activity of human trypsin was evaluated using the chromogenic substrate BAPNA (Sigma). Briefly, trypsin (126 nM) was pre-incubated for 10 minutes at 37°C with 60 µg/mL of each peptide in Tris/HCl buffer 50 mM containing CaCl2 0.02% (v/v), pH 8.0. Enzymatic reaction was initiated by addition of substrate (1.25 mM), followed by incubation at 37°C, for 20 minutes.
as §2
as §3, with “Enzymatic reaction was initiated by addition of substrate (10 µM), followed by incubation at 37°C, for 20 minutes.” left out, “All the experiments were made in triplicate.” left out
as §4, with “Evaluation of the effects of synthetic peptides on batroxobin and on human serine proteases activities.” left out

[5] = test system: Bothrops jararaca venom (BjV) serine proteases; assay: BjV serine protease (thrombin-like) activity, chromogenic substrate S2238; format: biochemical; conditions: BjV 5 µg, peptide 60 µg/mL or 100 µg/mL, S2238 200 µM or 2 mM, 20 min 37°C, 405 nm, triplicate
Protocol: as §1, §2
as §3, with “All the experiments were made in triplicate.” left out

[6] = test system: Bothrops jararaca venom (BjV) SVSPs; assay: BjV SVSPs activity, fluorogenic substrate Abz-Ser; format: biochemical; conditions: peptide 100 µg/mL; for inhibition of BjV serine protease activity on Abz-Ser: substrate Abz-Ser 10 µM, BjV 5 µg/100µL, pre-incubated 10 min 37°C, PBS pH 7.4, 20mM NaCl, 20 min 37°C, fluorescence 420 nm (ex 320 nm), triplicate
Protocol: as §3
Figure 3. Evaluation of synthetic peptides on Bothrops venom serine-proteases. BjV was pre-incubated with 100 µg/mL of pepB or pepC and a serine proteases activity was evaluated after 20 min, at 37 °C, with (A) 2 mM of substrate S2238 or (B) 10 µM of substrate Abz-Ser.

[7] = test system: Bothrops spp venom SVSPs; conditions: ref [9]; cited from earlier work
Protocol: In this context, the use of selective SVSPs inhibitory compounds, in association with available commercial antivenoms, could be a starting point for studies aiming snakebite treatment efficacy improvement. Therefore, in the present study, small peptides were evaluated as potential SVSPs inhibitors.

[8] = batroxobin 0.8 U, pre-incubated 10 min 37°C, Tris/HCl 0.15mM, CaCl2 0.02%, pH 8.0, S-2238 200 µM, 20 min 37°C, triplicate

Substance	inhibition of batroxobin activity (in words) ([1]; tested until 1 mg/mL, batroxobin 0.8 U, pre-incubated 10 min 37°C, Tris/HCl 0.15mM, CaCl2 0.02%, pH 8.0, S-2238 200 µM, 20 min 37°C, triplicate)	efficiency on batroxobin relative to pepC ([1]; pepB compared with pepC)	inhibition of batroxobin activity [1, 8]	effect on catalytic activity of human thrombin [2]	effect on catalytic activity of human factor Xa [3]	effect on catalytic activity of human trypsin [4]	inhibition of BjV thrombin-like activity [5]	inhibitory effect of pepB relative to pepC on BjV with Abz-Ser ([6]; pepB compared with pepC)	inhibition of BjV serine protease activity on Abz-Ser [6]	selectivity as substrate for Bothrops spp venom SVSPs [7]
PFYQAS [pepA, 6-mer peptide designed based on carboxyl-terminus of the substrate Abz-Ser]	did not inhibit batroxobin activity	–	–	–	–	–	–	–	–	–
PF[dR]QAS [pepB, 6-mer peptide related to pepA, D-Arg replacing Tyr]	–	twice more efficient than pepC	36 ± 7%	none of the peptides inhibited human serine proteases	none of the peptides inhibited human serine proteases	none of the peptides inhibited human serine proteases	15 ± 3%	4 times less efficient	5.4 ± 0.7%	–
Abz-RPPGFSPFRQ-EDDnp [Abz-Ser]	–	–	–	–	–	–	–	–	–	selective for Bothrops spp venom SVSPs
PFYQSS [pepC, 6-mer peptide related to pepA, a Ser instead of Ala]	–	–	18 ± 4%	none of the peptides inhibited human serine proteases	none of the peptides inhibited human serine proteases	none of the peptides inhibited human serine proteases	18 ± 2%	–	19.3 ± 0.7%	–
